Measurements: article PMC8750417, “Intracellular Amplifiers of Reactive Oxygen Species Affecting Mitochondria as Radiosensitizers” (Cancers, 2021)

Columns and labels:
[1] = test system: A2780 cells; assay: Cell viability, MTT assay, A2780; type: cell-based, human
Method: Determination of viability of cells in the presence of prodrugs and controls A2780 and BL-2 cells The medium was removed, and the cells were washed two times with DPBS, trypsinated, and resuspended in RPMI 1640 medium (A2780) supplemented with 5% FBS (for 24 h and 48 h assay) or 10% FBS (for 96 h assay) , 1% L-glutamine, and 1% penicillin/streptomycin.
A2780 cells: This suspension was spread in the wells of a 96 -well microtiter plate (25000 cells for A2780 per well per 100 μL) and left standing at 37 °C in the chamber filled with CO2 (5%) for overnight. Stock solutions of prodrugs of different concentra tions (1 μL, solvent dmso, final concentrations in wells were 2, 5, 10, 30, 50 μM) were added to the wells and incubated for specific periods of time. Four experiments were conducted for each concentration of the prodrug. Finally, 3-(4,5-dimethylthiazol-2-yl)-2,5-diphenyltetrazolium bromide (MTT, 20 μL of the solution prepared by dissolving MTT (5 mg) in DPBS buffer (1 mL)) was added to each well, incubated for 3 h, treated with sodium dodecyl sulfate (SDS) solution (90 μL, 10% solution in 0.01 M aqueous HC l), and incubated overnight. Afterward, the intensity of the absorbance at 590 nm was measured.
MTT is converted in live cells to blue dye with the absorbance maximum λ max at 590 nm.
The absorbance at 690 nm was taken as a baseline value. The baseline corrected absorbance at 590 nm (A(590 nm) − A(690 nm)) was applied to calculate the relative number of viable cells. IC50 values were determined by fitting the experimental data expressing the number of viable cells (%, Y-axis) versus drug concentration (μM, X-axis) with a line curve and the X-axis value corresponding to 50% viability was considered as IC50 value according to the line curve (Figure S50, Table S2). […]

[2] = n-octanol/water partition coefficient (logP) by RP-TLC; type: physicochemical; details: for logP (Hydrolyzed Prodrug): n-octanol/water partition coefficient of the hydrolyzed boronic acid (_BA) form of the prodrug named; for logP (Prodrug): n-octanol/water partition coefficient of the intact prodrug (or control 2c_c), RP-TLC, MOPS pH 7.4
Method: Determination of n-octanol/water partition coefficients (LogP) […]
mixture of dichloromethane/CH3OH at proper concentrations. Commercially available […]
7.4) (6/4, v/v) was used. The solvent migration distance was around 4.5 cm. The plates […]
and its distance was manually measured. All measurements were done in at least triplicate and average values were used in further calculations. All experiments were performed at ambient temperature (22 ± 2 °C). […]

[3] = test system: chronic lymphocytic leukemia (CLL) cells; assay: Viability of primary CLL cells (CellTiter Glo); type: cell-based, human; details: viability of CLL vs MNC, 48 h; for 2c at 3.3 and 10 µM
From the text: Determination of viability of primary cancer (CLL) and normal (MNC) cells in the […]
Clinical samples from chronic lymphocytic leukemia (CLL) patients (N=6, CLL cells) and healthy donors (N=6; peripheral blood mononuclear cells, MNCs) were collected at the University Hospital Heidelberg, Germany. Informed consent was obtained in accordance with the Declaration of Helsinki. Sample collection and analysis was approved by the ethics committee of the University of Heidelberg (S-254/2016). Blood was separated by a Ficoll gradient (GE Healthcarey), and cells were cryopreserved. Drug sensitivity screening was performed in 384-well format (Greiner Bio One) with 10 different prodrug […]
4x10^4 cells per well. Cells were cultured in RPMI-1640 (Invitrogen) supplemented with penicillin/streptomycin (Invitrogen), L-glutamine (Invitrogen) and 10% pooled and heat inactivated AB-type human serum (Sigma-Aldrich). Cell viability was assessed by quantification of ATP (CellTiter Glo®, Promega) 48 hours after drug application.
Luminescence was measured on a Tecan Infinite F200 Microplate Reader. Viability was calculated as % of solvent (DMSO) treated control. Representative plots of cell viability

[4] = Prodrug-induced generation of ROS in cell free settings (DCFH/H2O2); details: for ROS Release Efficacy: relative acceleration of the rate of DCFH fluorescence increase with H2O2, pH 7.4, FeSO4 = 1.0
From the text: As previously reported, the NAAF-prodrugs react with ROS like H2O2, first leading to the cleavage of the B-C-bond with the formation of the phenol derivatives (product 2c-1, Figure S49, SI). The latter compounds exist in equilibrium with the corresponding phenolates. The phenolates undergo the spontaneous 1,6-elimination of para-quinone methide (QM) followed by the release of CO2 with the formation of the N-alkylaminoferrocene NAAF drugs (product 2c-2, Figure S46, SI). By using electrospray ionization mass spectrometry (ESI–MS), we confirmed for one representative prodrug 2c that it reacts with H2O2 in cell free settings according to this common mechanism (ESI-MS, Figures S46–S48, SI). The NAAF is further oxidized by H2O2 or molecular oxygen with the generation of drug NAAF^+ and highly toxic HO• or/and O2^•−. Finally, the NAAF^+ is reduced by glutathione (GSH), thereby closing the catalytic cycle, in which the NAAF acts as a catalyst. We evaluated the formation of HO• or/and O2^•− by using 2′,7′-dichlorodihydrofluorescein (DCFH) as a probe (Table 1, Figure S49, SI). This probe is oxidized to the fluorescent product 2′,7′-dichlorofluorescein (DCF) in the presence of HO• or/and O2^•−. […] The lower activity of 2c and 2d correlates with their higher lipophilicity and their correspondingly higher propensity to form aggregates in aqueous solution (Figure S45, SI).
Prodrug-induced generation of ROS in cell free settings
2',7'-Dichlorodihydrofluorescein diacetate (DCFH-DA, 4.9 mg) was dissolved in DMF (100 μL) and mixed with aqueous NaOH (0.1 M, 900 μL). The resulting mixture was incubated for 30 min at 22 °C in the dark to obtain a stock solution of 2',7'-dichlorodihydrofluorescein (DCFH, 10 mM). Next, DCFH (1 µL ) was added to the solution containing MOPS buf fer (100 mM, pH 7.4), N,N,N'N' -e thylenediaminetetraacetic acid (EDTA , 10 mM) and glutathione (GSH , 5 mM) (1 mL, final concentration of DCFH 10 μM). The reaction mixture was heated to 37 °C and H2O2 (1 µL, final concentration 10 mM) was added. The reaction was monitored by fluorescence spectroscopy: λex = 501 nm, λem = 523 nm. After around 5 min, prodrugs (1 mM in DMF, 10 μL) or positive control FeSO4 (1 mM in water, 10 μL) were added, and the fluorescence monitoring was continued until the fluorescence signal growth was stalled after approximately 100 to 300 min. A representative kinetics of ROS […]
The data are presented in Table 1 as relative acceleration of the rate of the fluorescence increase, where the rate of the fluorescence increase obtained in the presence of positive control FeSO4 was set […]
y = a time + b (a = (dF/dt) , min-1)
Figure S49. Increase of the fluorescence intensity (λex = 501 nm, λem = 523 nm) upon oxidation of DCFH by H2O2 in the presence of FeSO4. Experimental details are provided in the description above. The time point of the FeSO4 addition is indicated with a black […]
(also on this page, place not known: ° C µL) buffer N,N,N'N'-ethylenediaminetetraacetic (EDTA, (GSH, ° C FeSO 4 (λ ex λ em Fluorescence (a.u.) (dF/dt)0, min -1 Addition of)
(1 picture or pasted object on this page, not shown here)

[5] = Solubility in RPMI 1640 medium, precipitation seen by bright field optical microscopy; details: DMSO 1%; for Solubility: 48 h incubation in RPMI 1640, FBS 5%, first signs of precipitation; for first signs of precipitation: immediately after dilution in RPMI 1640, FBS 5%
Method: The latter medium was selected, since we used it for the cellular assays. […] Then we monitored the formation of (not detectable in the previous experiment) aggregated species in prodrug solutions that appeared transparent (concentrations < 50 µM) by using dynamic light scattering. […]
Solubility of drugs in aqueous buffers
Observing prodrug precipitation by using bright field optical microscopy […]
glutamine (1 %), and penicillin/streptomycin (1 %) was filled into 96-well microtiter plates (100 µL for each well) and compounds in DMSO stock solution (1 µL) were added. Each well was monitored by using bright field optical microscopy both immediately after […]

[6] = test system: A2780 cells; assay: Mitochondrial ROS (MitoSOX, flow cytometry), A2780; type: cell-based, human
Method: Monitoring mitochondrial ROS (mROS)
A2780 cells were seeded in RPMI 1640 medium containing 5% FBS, 1% L-glutamine and 1% penicillin/streptomycin in a 96-well microtiter plate (total volume 0.1 mL) at a density of 250 cells/µL one day before the experiment. On the day of the experiment, the cells were washed with DPBS buffer and a fresh portion of RPMI 1640 medium containing 5% FBS, 1% L-glutamine and 1% penicillin/streptomycin (100 µL) was added followed by addition of compounds (1 μL of stock solutions in DMSO, final concentration of the prodrugs was 5, 10 μM and 30 μM) or carrier only (DMSO, 1 µL, final concentration 1 %, v/v) and incubation for 1 or 2 h in the dark chamber filled with CO 2 (5%) at 37 °C. After that, the cells were washed twice with DPBS buffer and the medium was replaced with HBSS (Hanks' Balanced Salt solution, 50 μL) containing MitoSOX (Red Mitochondrial Superoxide Indicator, Thermo-Fisher, Catalog number M36008, final concentration 5 µM obtained by adding 0.5 µ L of the 0.5 mM stock solution of MitoSOX in DMSO to the HBSS ) […]
(1 picture or pasted object on this page, not shown here) […]
and the cells were incubated in the dark chamber filled with CO2 (5%) at 37 °C for 20 min.
Next, the cells were detached from the culture dish using trypsin/EDTA (0.025%/0.01%, v/v, 50 µL). The cells were re-suspended in RPMI 1640 medium containing 5% FBS, 1% L-glutamine and 1% penicillin/streptomycin (100 µL). Finally, the fluorescence of live cells (λex = 488 nm, λem = 578 nm) in the suspensions was determined by using flow cytometry

Structure (SMILES)	cell viability at which the effect is saturated ([1]; A2780, 24 h) [%]	IC50 ([1]; A2780, 24 h incubation) [µM]	cell viability at which the effect is saturated ([1]; A2780, 48 h) [%]	IC50 ([1]; A2780, 48 h incubation) [µM]	cell viability at which the effect is saturated ([1]; A2780, 96 h) [%]	IC50 ([1]; A2780, 96 h incubation) [µM]	logP (Hydrolyzed Prodrug) [2]	logP (Prodrug) [2]	cancer cell specificity, primary CLL cells vs MNCs [3]	ROS-generating activity, fold lower than that of 2a and 2b ([4]; cell free DCFH assay)	ROS Release Efficacy [4]	Solubility [5] [µM]	first signs of precipitation [5] [µM]	mitochondrial ROS (mROS) vs non-treated cells [6]
CC1(C)OB(c2ccc(COC(=O)N(Cc3cn(Cc4ccc(Cn5cc(CCc6ccccc6)nn5)cc4)nn3)[c-]3cccc3)cc2)OC1(C)C.[Fe+2].c1cc[cH-]c1 [2d]	70	> 30	50	> 30	43	8.3 ± 1.5	3.42 ± 0.14	5.56 ± 0.14	some specificity towards primary CLL cells	~ 2 fold	0.37 ± 0.13	30	30	
CC1(C)OB(c2ccc(COC(=O)N[c-]3cccc3)cc2)OC1(C)C.[Fe+2].c1cc[cH-]c1 [5a]														substantially weaker
CC1(C)OB(c2ccc(COC(=O)N(Cc3cn(CCc4ccccc4)nn3)[c-]3cccc3)cc2)OC1(C)C.[Fe+2].c1cc[cH-]c1 [2b]		24.7 ± 0.6		18.5 ± 1.3		12 ± 3	3.10 ± 0.12	5.37 ± 0.10	some specificity towards primary CLL cells		0.76 ± 0.19	100	50	
